According to patent US11225481B2 (Centre national de la recherche scientifique, priority 2015, dated 2022):

Molecular target: T1, BRD4(BD1) (Homo sapiens, UniProt O60885)
T1 construct: a BRD4(BD1) synthetic gene that includes a TEV cleavage site was purchased from LifeTechnology; made in house
Assay: HTRF assay on robot-synthesised focused library (Example 4 bis)
Type: binding
Settings: Table 2 bis; focused library without intermediary purification; read-out: HTRF (IC50, μM), effect on BRD4(BD1) activity
Procedure: (§1) The Accelerator Synthetizer SLT100 allows the efficient synthesis of the focused library in 96 well plates that can be directly transferred to a Labcyte Access/Echo® Laboratory Workstation to assess the compounds for their ability to disrupt bromodmain/histone complexes using the homogeneous time-resolved fluorescence (HTRF®) technology (IC50 μM).
as §1, with “After” for “The Accelerator Synthetizer SLT100 allows”, “with the Accelerator Synthetizer SLT100, the focused library has been” for “that can be”, “μM, table 2bis).” for “μM).”

Structure (SMILES)	IC50
CCCCn1c(=O)[nH]c(=O)c2c1nc(COc1nc3cc(C(=O)O)ccc3[nH]1)n2CC [Compound 42]	45.3 µM
CCn1c(CSc2nc3cc(C(=O)O)ccc3o2)nc2c1c(=O)[nH]c(=O)n2Cc1ccc(Cl)cc1 [Compound 57]	7.5 µM
CCCCn1c(=O)[nH]c(=O)c2c1nc(CSc1nc3nc(C)ccc3o1)n2CC [Compound 54]	7.1 µM
CCn1c(CSc2nc3cc(C(=O)OC)ccc3o2)nc2c1c(=O)[nH]c(=O)n2Cc1ccc(Cl)cc1 [Compound 63]	8.9 µM
CCn1c(CSc2nc3nc(C)c(CCC(=O)O)c(C)n3n2)nc2c1c(=O)[nH]c(=O)n2Cc1ccc(Cl)cc1 [Compound 55]	14.2 µM
CCCCn1c(=O)[nH]c(=O)c2c1nc(COc1ccc(-n3ncc(C(=O)O)c3CC)nn1)n2CC [Compound 44]	21.9 µM
CCCCn1c(=O)[nH]c(=O)c2c1nc(COc1cccc(C(=O)NCc3ccccc3)c1)n2CC [Compound 51]	30.2 µM
CCn1c(COc2ccc(C3NC(C(=O)O)CS3)cc2)nc2c1c(=O)[nH]c(=O)n2Cc1ccc(Cl)cc1 (stereo not shown) [Compound 73]	7.5 µM
CCn1c(CSc2nc3cc(S(=O)(=O)N4CCCCC4)ccc3o2)nc2c1c(=O)[nH]c(=O)n2Cc1ccc(Cl)cc1 [Compound 58]	2.7 µM
CCn1c(CSc2nnc(Cc3cc(C)nn3C)n2CC2CCCO2)nc2c1c(=O)[nH]c(=O)n2Cc1ccc(Cl)cc1 (stereo not shown) [Compound 74]	5.5 µM
CCn1c(COc2nc3cc(C(=O)O)ccc3[nH]2)nc2c1c(=O)[nH]c(=O)n2Cc1ccc(Cl)cc1 [Compound 68]	35.5 µM
CCCCn1c(=O)[nH]c(=O)c2c1nc(CSc1nc3nc(C)c(CCC(=O)O)c(C)n3n1)n2CC [Compound 33]	8.5 µM
CCCCn1c(=O)[nH]c(=O)c2c1nc(COc1ccc(Nc3nc4ccccc4c(=O)[nH]3)cc1)n2CC [Compound 52]	33 µM
CCCCn1c(=O)[nH]c(=O)c2c1nc(CSc1nnc(-c3ccccc3)c(-c3ccccc3)n1)n2CC [Compound 46]	20.1 µM
CCCCn1c(=O)[nH]c(=O)c2c1nc(COc1cn3cc(C(=O)O)ccc3n1)n2CC [Compound 49]	35.1 µM
CCn1c(CSc2nc3ccc(C(=O)O)cc3[nH]2)nc2c1c(=O)[nH]c(=O)n2Cc1ccc(Cl)cc1 [Compound 64]	5.1 µM
CCCCn1c(=O)[nH]c(=O)c2c1nc(COc1ccc3c(=O)c(Oc4ccccc4)coc3c1)n2CC [Compound 47]	30.1 µM
CCn1c(CSc2nc3cc(S(=O)(=O)N4CCOCC4)ccc3o2)nc2c1c(=O)[nH]c(=O)n2Cc1ccc(Cl)cc1 [Compound 62]	8.9 µM
CCn1c(CSc2nc3ncccn3n2)nc2c1c(=O)[nH]c(=O)n2Cc1ccc(Cl)cc1 [Compound 80]	10.6 µM
CCc1c(C(=O)O)cnn1-c1ccc(OCc2nc3c(c(=O)[nH]c(=O)n3Cc3ccc(Cl)cc3)n2CC)nn1 [Compound 70]	6.5 µM

Structure (SMILES)	IC50
CCCCn1c(=O)[nH]c(=O)c2c1nc(CSc1nc3cc(C(=O)OC)ccc3o1)n2CC [Compound 38]	48.2 µM
CCOC(=O)c1ccc2c(c1)nc(SCc1nc3c(c(=O)[nH]c(=O)n3Cc3ccc(Cl)cc3)n1CC)n2CC [Compound 66]	16.8 µM
CCCCn1c(=O)[nH]c(=O)c2c1nc(CSc1nc3cc(C(=O)OCC)ccc3n1CC)n2CC [Compound 41]	6.4 µM
CCCCNS(=O)(=O)c1ccc2nc(SCc3nc4c(c(=O)[nH]c(=O)n4Cc4ccc(Cl)cc4)n3CC)[nH]c2c1 [Compound 67]	8.9 µM
CCCCn1c(=O)[nH]c(=O)c2c1nc(CSc1nc(O)c3c(C)cc(C)nc3n1)n2CC [Compound 53]	4.4 µM
CCCCn1c(=O)[nH]c(=O)c2c1nc(CSc1nc3ccc([NH2+][O-])cc3[nH]1)n2CC [Compound 40]	33 µM
CCCCn1c(=O)[nH]c(=O)c2c1nc(COc1ccc(-n3[nH]c(C(=O)O)cc3=O)nn1)n2CC [Compound 43]	33.4 µM
CCCCn1c(=O)[nH]c(=O)c2c1nc(COc1ccc3c(=O)c(-c4ccccc4)coc3c1)n2CC [Compound 48]	35.2 µM
CCCCn1c(=O)[nH]c(=O)c2c1nc(CSc1nc3cc(S(=O)(=O)CC)ccc3o1)n2CC [Compound 37]	16.6 µM
CCn1c(CSc2nc3cc([N+](=O)[O-])ccc3o2)nc2c1c(=O)[nH]c(=O)n2Cc1ccc(Cl)cc1 [Compound 60]	8.4 µM
CCCCn1c(=O)[nH]c(=O)c2c1nc(CSc1nc3nc(C)c(CC(=O)O)c(C)n3n1)n2CC [Compound 34]	44.5 µM
CCn1c(CSc2nc3nc(C)c(Br)cc3[nH]2)nc2c1c(=O)[nH]c(=O)n2Cc1ccc(Cl)cc1 [Compound 79]	4.2 µM
CCCCn1c(=O)[nH]c(=O)c2c1nc(CSc1nc3ccc(C(=O)O)cc3o1)n2CC [Compound 35]	19.2 µM
CCCCn1c(=O)[nH]c(=O)c2c1nc(COc1ccc(C3CNCC3C(=O)O)cc1)n2CC (stereo not shown) [Compound 45]	11.6 µM
CCn1c(CSc2nc3cc(S(=O)(=O)N(C)C)ccc3o2)nc2c1c(=O)[nH]c(=O)n2Cc1ccc(Cl)cc1 [Compound 61]	4.7 µM
CCn1c(COc2cccc(C(=O)NCc3ccccc3)c2)nc2c1c(=O)[nH]c(=O)n2Cc1ccc(Cl)cc1 [Compound 75]	3.9 µM
CCn1c(COc2nnc(-c3ccccc3)c(-c3ccccc3)n2)nc2c1c(=O)[nH]c(=O)n2Cc1ccc(Cl)cc1 [Compound 71]	17.8 µM
CCn1c(CSc2nc3cc(S(=O)(=O)CC)ccc3o2)nc2c1c(=O)[nH]c(=O)n2Cc1ccc(Cl)cc1 [Compound 59]	6.9 µM
CCCCn1c(=O)[nH]c(=O)c2c1nc(CSc1nc3cc(S(=O)(=O)N4CCOCC4)ccc3[nH]1)n2CC [Compound 39]	38.2 µM
CCn1c(COc2ncc(-c3ccc(C(=O)O)s3)cc2C)nc2c1c(=O)[nH]c(=O)n2Cc1ccc(Cl)cc1 [Compound 72]	4.4 µM
